Read-outs that look alike come from different tables or passages of the source.
Tests used:
[1] = biological target: recombinant human NF-kappaB-inducing kinase (NIK/MAP3K14) (Homo sapiens, UniProt Q99558); assay: Inhibition of auto-phosphorylation of recombinant human NIK/MAP3K14 activity (AlphaScreen); type: biochemical; settings: GST-tagged NIK/MAP3K14 1 nM, 5 μM ATP, 2 h at 25° C.; average of values obtained
Summary of the method: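 GST-tagged NIK (1 nM) auto-phosphorylated for 2 h at 25 °C with 5 μM ATP in 50 mM Tris pH 7.5, 5 mM MgCl2, 0.7% DMSO. Phospho-Ser176/180 was detected by AlphaScreen using an anti-phospho-IKK antibody. IC50 came from sigmoidal fits of % inhibition versus high (full activity) and low (no ATP) controls.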

[2] = tested on: p-IKKα levels in L363 (NIK translocated multiple myeloma) cells; assay: Effect of compounds on p-IKKα levels in L363 cells (AlphaLISA SureFire Ultra); type: cell-based, human; settings: 10 μM MG132, 6 h, average of values obtained, read-out: Assay 2 IC50
Summary of the method: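 L363 cells were BAFF-stimulated overnight (250 ng/ml) in DMEM/0.5% BSA, then exposed to an 11-point 1:3 compound series (0.3% DMSO) with BAFF and 10 μM MG132 for 6 h at 37 °C. p-IKKα (Ser176/180) was measured by AlphaLISA SureFire Ultra. IC50 was fitted from % inhibition normalized to stimulated and unstimulated controls.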

[3] = Homo sapiens, L-363, 6 h, 250 ng/ml BAFF stimulated
[4] = Homo sapiens, L-363, 250 ng/ml BAFF stimulated

Sequence of recombinant human NF-kappaB-inducing kinase (NIK/MAP3K14) (Q99558 whole entry): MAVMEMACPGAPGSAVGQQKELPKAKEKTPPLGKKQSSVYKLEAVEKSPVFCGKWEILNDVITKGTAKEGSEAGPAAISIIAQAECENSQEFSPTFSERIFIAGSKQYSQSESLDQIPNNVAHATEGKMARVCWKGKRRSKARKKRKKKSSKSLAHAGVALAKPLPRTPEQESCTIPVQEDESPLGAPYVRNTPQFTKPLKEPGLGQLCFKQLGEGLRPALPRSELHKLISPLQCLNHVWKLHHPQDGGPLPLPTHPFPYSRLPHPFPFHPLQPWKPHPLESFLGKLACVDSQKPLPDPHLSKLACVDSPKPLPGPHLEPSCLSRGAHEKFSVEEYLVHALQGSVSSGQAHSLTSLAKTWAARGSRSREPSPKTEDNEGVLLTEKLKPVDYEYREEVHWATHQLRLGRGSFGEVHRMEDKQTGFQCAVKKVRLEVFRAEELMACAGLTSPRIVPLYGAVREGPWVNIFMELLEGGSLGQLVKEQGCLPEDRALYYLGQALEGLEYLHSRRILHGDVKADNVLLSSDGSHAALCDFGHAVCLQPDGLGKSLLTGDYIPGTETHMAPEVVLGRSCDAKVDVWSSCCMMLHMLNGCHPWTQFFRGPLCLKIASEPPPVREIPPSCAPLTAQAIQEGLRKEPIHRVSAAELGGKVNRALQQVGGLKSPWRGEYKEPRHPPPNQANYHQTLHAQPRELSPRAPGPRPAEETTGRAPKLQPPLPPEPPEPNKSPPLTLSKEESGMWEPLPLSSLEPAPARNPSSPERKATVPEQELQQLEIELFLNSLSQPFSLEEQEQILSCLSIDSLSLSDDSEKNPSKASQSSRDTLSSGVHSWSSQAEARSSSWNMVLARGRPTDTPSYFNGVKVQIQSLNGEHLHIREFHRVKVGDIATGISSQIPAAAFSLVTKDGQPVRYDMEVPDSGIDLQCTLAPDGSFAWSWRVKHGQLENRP

IC50 [2, 3]	IC50 ([2]; 250 ng/ml BAFF stimulated)	SMILES	IC50 [1]	IC50 [2, 4]
≤ 100 nM	–	[2H]c1[nH]c2nccnc2c1-c1nc(-c2cccc([C@]3(O)CCn4ccnc43)c2)cs1 [Example 62, (R)-7-(3-(2-(5H-Pyrrolo[2,3-b]pyrazin-7-yl-6-d)thiazol-4-yl)phenyl)-6,7-dihydro-5H-pyrrolo[1,2-a]imidazol-7-ol]	≤ 100 nM	–
≤ 100 nM	–	[2H]c1cnc2[nH]cc(-c3nc(-c4cccc([C@]5(O)CCn6ccnc65)c4)cs3)c2n1 [Example 63, (R)-7-(3-(2-(5H-Pyrrolo[2,3-b]pyrazin-7-yl-2-d)thiazol-4-yl)phenyl)-6,7-dihydro-5H-pyrrolo[1,2-a] imidazol-7-ol]	≤ 100 nM	–
–	–	Cc1sc(-c2c[nH]c3nccnc23)nc1-c1cccc([C@]2(O)CCN(C)C2=O)c1 [Example 66, (R)-3-Hydroxy-1-methyl-3-(3-(5-methyl-2-(5H-pyrrolo[2,3-b]pyrazin-7-yl)thiazol-4-yl)phenyl)pyrrolidin-2-one]	≤ 100 nM	> 500 nM
–	–	Cc1ccc([C@]2(O)CCN(C)C2=O)cc1-c1csc(-c2c[nH]c3nccnc23)n1 [Example 67, (R)-3-(3-(2-(5H-Pyrrolo[2,3-b]pyrazin-7-yl)thiazol-4-yl)-4-methylphenyl)-3-hydroxy-1-methylpyrrolidin-2-one]	≤ 100 nM	> 500 nM
–	–	Cc1cc(-c2csc(-c3c[nH]c4nccnc34)n2)cc([C@]2(O)CCN(C)C2=O)c1 [Example 68, (R)-3-(3-(2-(5H-Pyrrolo[2,3-b]pyrazin-7-yl)thiazol-4-yl)-5-methylphenyl)-3-hydroxy-1-methylpyrrolidin-2-one]	≤ 100 nM	> 500 nM
–	–	Cc1ccc(-c2csc(-c3c[nH]c4nccnc34)n2)cc1[C@]1(O)CCN(C)C1=O [Example 69, (R)-3-(5-(2-(5H-Pyrrolo[2,3-b]pyrazin-7-yl)thiazol-4-yl)-2-methylphenyl)-3-hydroxy-1-methylpyrrolidin-2-one]	100 to 500 nM	> 500 nM
–	–	Cc1ccc(-c2csc(-c3c[nH]c4nccnc34)n2)cc1[C@@]1(O)CCN(C)C1=O [Example 70, (S)-3-(5-(2-(5H-Pyrrolo[2,3-b]pyrazin-7-yl)thiazol-4-yl)-2-methylphenyl)-3-hydroxy-1-methylpyrrolidin-2-one]	> 500 nM	> 500 nM
–	–	Cc1[nH]c2ncccc2c1-c1nc(-c2cccc([C@]3(O)CCN(C)C3=O)c2)cs1 [Example 71, (R)-3-Hydroxy-1-methyl-3-(3-(2-(2-methyl-1H-pyrrolo[2,3-b]pyridin-3-yl)thiazol-4-yl)phenyl)pyrrolidin-2-one]	100 to 500 nM	> 500 nM
–	–	CN1CC[C@@](O)(c2cccc(-c3csc(-c4c[nH]c5ncc(C#N)cc45)n3)c2)C1=O [Example 72, (R)-3-(4-(3-(3-Hydroxy-1-methyl-2-oxopyrrolidin-3-yl)phenyl)thiazol-2-yl)-1H-pyrrolo[2,3-b]pyridine-5-carbonitrile]	≤ 100 nM	> 500 nM
–	–	Cc1ccc2c(-c3nc(-c4cccc([C@]5(O)CCN(C)C5=O)c4)cs3)c[nH]c2n1 [Example 73, (R)-3-Hydroxy-1-methyl-3-(3-(2-(6-methyl-1H-pyrrolo[2,3-b]pyridin-3-yl)thiazol-4-yl)phenyl)pyrrolidin-2-one]	≤ 100 nM	> 500 nM
–	–	Cc1cnc2[nH]c(C)c(-c3nc(-c4cccc([C@]5(O)CCN(C)C5=O)c4)cs3)c2c1 [Example 74, (R)-3-(3-(2-(2,5-Dimethyl-1H-pyrrolo[2,3-b]pyridin-3-yl)thiazol-4-yl)phenyl)-3-hydroxy-1-methylpyrrolidin-2-one]	> 500 nM	> 500 nM
> 500 nM	–	O[C@@]1(c2cccc(-c3csc(-c4n[nH]c5ncccc45)n3)c2)CCn2ccnc21 [Example 75, (R)-7-(3-(2-(1H-Pyrazolo[3,4-b]pyridin-3-yl)thiazol-4-yl)phenyl)-6,7-dihydro-5H-pyrrolo[1,2-a]imidazol-7-ol]	100 to 500 nM	–
> 500 nM	–	O[C@@]1(c2cccc(-c3csc(-c4n[nH]c5nccnc45)n3)c2)CCn2ccnc21 [Example 76, (R)-7-(3-(2-(1H-Pyrazolo[3,4-b]pyrazin-3-yl)thiazol-4-yl)phenyl)-6,7-dihydro-5H-pyrrolo[1,2-a]imidazol-7-ol]	100 to 500 nM	–
≤ 100 nM	–	Cc1cnc2[nH]cc(-c3nc(-c4cccc([C@]5(O)CCn6ccnc65)c4)cs3)c2n1 [Example 81, (R)-7-(3-(2-(2-Methyl-5H-pyrrolo[2,3-b]pyrazin-7-yl)thiazol-4-yl)phenyl)-6,7-dihydro-5H-pyrrolo[1,2-a]imidazol-7-ol]	≤ 100 nM	–
> 500 nM	–	Cc1cnc2[nH]cc(-c3nc(-c4cccc([C@@]5(O)CCn6ccnc65)c4)cs3)c2n1 [Example 82, (S)-7-(3-(2-(2-Methyl-5H-pyrrolo[2,3-b]pyrazin-7-yl)thiazol-4-yl)phenyl)-6,7-dihydro-5H-pyrrolo[1,2-a]imidazol-7-ol]	100 to 500 nM	–
100 to 500 nM	–	Cc1cnc2c(-c3nc(-c4cccc([C@]5(O)CCn6ccnc65)c4)cs3)c[nH]c2n1 [Example 83, (R)-7-(3-(2-(3-Methyl-5H-pyrrolo[2,3-b]pyrazin-7-yl)thiazol-4-yl)phenyl)-6,7-dihydro-5H-pyrrolo[1,2-a]imidazol-7-ol]	≤ 100 nM	–
> 500 nM	–	O[C@]1(c2cccc(-c3nc(-c4c[nH]c5ncccc45)cs3)c2)CCn2ccnc21 [Example 84, (S)-7-(3-(4-(1H-Pyrrolo[2,3-b]pyridin-3-yl)thiazol-2-yl)phenyl)-6,7-dihydro-5H-pyrrolo[1,2-a]imidazol-7-ol]	100 to 500 nM	–
–	> 500 nM	O[C@@]1(c2cccc(-c3csc(-c4c[nH]c5ncccc45)n3)c2)COc2cccnc21 [Example 85, (R)-3-(3-(2-(1H-Pyrrolo[2,3-b]pyridin-3-yl)thiazol-4-yl)phenyl)-2,3-dihydrofuro[3,2-b]pyridin-3-ol]	> 500 nM	–
–	> 500 nM	O[C@@]1(c2cccc(-c3csc(-c4c[nH]c5nccnc45)n3)c2)COc2cccnc21 [Example 86, (R)-3-(3-(2-(5H-Pyrrolo[2,3-b]pyrazin-7-yl)thiazol-4-yl)phenyl)-2,3-dihydrofuro[3,2-b]pyridin-3-ol]	> 500 nM	–
> 500 nM	–	Cc1ccnc2[nH]cc(-c3nc(-c4cccc([C@]5(O)CCn6ccnc65)c4)cs3)c12 [Example 87, (R)-7-(3-(2-(4-Methyl-1H-pyrrolo[2,3-b]pyridin-3-yl)thiazol-4-yl)phenyl)-6,7-dihydro-5H-pyrrolo[1,2-a]imidazol-7-ol]	≤ 100 nM	–
> 500 nM	–	O[C@@]1(c2cccc(-c3csc(-c4c[nH]c5nnccc45)n3)c2)CCn2ccnc21 [Example 88, (R)-7-(3-(2-(7H-pyrrolo[2,3-c]pyridazin-5-yl)thiazol-4-yl)phenyl)-6,7-dihydro-5H-pyrrolo[1,2-a]imidazol-7-ol]	≤ 100 nM	–
–	–	CN1C(=O)[C@@](O)(c2cccc(-c3csc(-c4c[nH]c5ncccc45)n3)c2)c2ncccc21 [Example 91, (R)-3-(3-(2-(1H-Pyrrolo[2,3-b]pyridin-3-yl)thiazol-4-yl)phenyl)-3-hydroxy-1-methyl-1,3-dihydro-2H-pyrrolo[3,2-b]pyridin-2-one]	> 500 nM	> 500 nM
–	–	CN1C(=O)[C@](O)(c2cccc(-c3csc(-c4c[nH]c5ncccc45)n3)c2)c2ncccc21 [Example 92, (S)-3-(3-(2-(1H-Pyrrolo[2,3-b]pyridin-3-yl)thiazol-4-yl)phenyl)-3-hydroxy-1-methyl-1,3-dihydro-2H-pyrrolo[3,2-b]pyridin-2-one]	≤ 100 nM	> 500 nM
–	–	CN1CC[C@@](O)(c2cccc(-c3coc(-c4c[nH]c5ncccc45)c3)c2)C1=O [Example 93, (R)-3-(3-(5-(1H-Pyrrolo[2,3-b]pyridin-3-yl)furan-3-yl)phenyl)-3-hydroxy-1-methylpyrrolidin-2-one]	≤ 100 nM	> 500 nM
–	–	CN1CC[C@@](O)(c2cccc(-c3csc(-c4c[nH]c5ncc(F)c(F)c45)n3)c2)C1=O [Example 94, (R)-3-(3-(2-(4,5-Difluoro-1H-pyrrolo[2,3-b]pyridin-3-yl)thiazol-4-yl)phenyl)-3-hydroxy-1-methylpyrrolidin-2-one]	≤ 100 nM	> 500 nM
–	–	CN1CC[C@@](O)(c2cccc(-c3csc(-c4c[nH]c5ncc(Cl)c(F)c45)n3)c2)C1=O [Example 95, (R)-3-(3-(2-(5-Chloro-4-fluoro-1H-pyrrolo[2,3-b]pyridin-3-yl)thiazol-4-yl)phenyl)-3-hydroxy-1-methylpyrrolidin-2-one]	≤ 100 nM	> 500 nM
> 500 nM	–	O[C@@]1(c2cccc(-c3csc(-c4c[nH]c5ncc(F)c(F)c45)n3)c2)CCn2ccnc21 [Example 96, (R)-7-(3-(2-(4,5-Difluoro-1H-pyrrolo[2,3-b]pyridin-3-yl)thiazol-4-yl)phenyl)-6,7-dihydro-5H-pyrrolo[1,2-a]imidazol-7-ol]	≤ 100 nM	–
100 to 500 nM	–	O[C@@]1(c2cccc(-c3csc(-c4c[nH]c5ncc(Cl)c(F)c45)n3)c2)CCn2ccnc21 [Example 97, (R)-7-(3-(2-(5-Chloro-4-fluoro-1H-pyrrolo[2,3-b]pyridin-3-yl)thiazol-4-yl)phenyl)-6,7-dihydro-5H-pyrrolo[1,2-a]imidazol-7-ol]	≤ 100 nM	–

— US20230416256A1, “SMALL MOLECULE INHIBITORS OF NF-kB INDUCING KINASE” (Janssen Pharmaceutica NV, priority 2020, published 2023)
